Laboratory results taken from patent US20130253056A1, “Continuous Administration of Levodopa and/or Dopa Decarboxylase Inhibitors and Compositions for Same” (NEURODERM, LTD., priority 2009, published 2013).

What was measured:
[1] = mice
Experimental: Mice were implanted subcutaneously with Alzet pumps containing Saline (Negative Control), Vehicle or Carbidopa solution. A day following implantation LD/CD was administered orally Q8 h. The level of levodopa and dopamine in the brain was determined following the 4th oral dose of LD/CD.

[2] = man, monkey and dog; cited from earlier work
[3] = in vivo, sc
[4] = cited from earlier work
[5] = Effect of continuous subcutaneous carbidopa on pharmacokinetics of levodopa and carbidopa in pigs
Source text: (§1) In this experiment, the purpose was to determine the effect of continuous subcutaneous administration of carbidopa, with co-administration of oral L-dopa/carbidopa, on the pharmacokinetics of levodopa in pigs.

[6] = in vivo
Source text: as §1

[7] = continuous subcutaneous carbidopa co-administered with any oral LD preparation

In the case of `C[C@@](Cc1ccc(O)c(O)c1)(NN)C(=O)O` [Carbidopa, (−)-L-α-hydrazino-α-methyl-β-(3,4-dihydroxybenzene)propanoic acid monohydrate], the “levels of plasma LD” value ([1]; oral LD/CD with continuous SC carbidopa 15 mg/kg/d) is listed as “higher levels of plasma LD”, the “dopamine levels in the brain” value ([1]; seven hours post oral LD (LD/CD 32/8 mg/kg TID), continuous SC carbidopa 15 mg/kg/d) is listed as “significantly higher” and the “fraction of an oral dose absorbed” value [2] is listed as 40-70%. The “histological analysis of infusion sites (local tolerance)” value [3] was “No histological treatment-related abnormalities were observed”, the “solubility in alcohol, chloroform or ether” value [4] was “practically insoluble” and the solubility in water [4] was “only slightly soluble in water”. For the same compound, the “effect of increased carbidopa oral dose or frequency on the PK profile of levodopa” value [5] was “did not considerably improve”, the “increase of the AUC of levodopa” value [5, 7] was greater than 2 × and the “increase of the half live (t½) of levodopa” value [5, 7] was greater than 2 ×. For the same compound, the “treatment related local or systemic toxicity” value [6] was “No signs of treatment related local or systemic toxicity were observed”.
